Assays:
PEO1 cells = experiment: Caspase 3/7 assay, PEO1; format: cell-based; conditions: 50 μM olaparib, 24 hr
Protocol: Cells were pre-treated with 30 μM DB4 for 1 hr and then treated with various concentrations of olaparib for 72 hr. Cell survival was determined by MTS cytotoxicity assay. Data are means±SD (N=3-4). […] EOB calculation was used to quantify the synergy of the combination of DB4 and various concentrations of olaparib in PEO1 or PEO4 cells as shown in FIG. 8A. EOB>0, synergism; EOB=0, additivity; EOB<0, antagonism. […] Cells were pre-treated with 30 μM DB4-F for 1 hr and then treated with various concentrations of olaparib for 72 hr. Cell survival was determined by MTS cytotoxicity assay. Data are means±SD (N=3-4). […] EOB calculation was used to quantify the synergy of the combination of DB4-F and various concentrations of olaparib in PEO1 or PEO4 cells as shown in FIG. 8B. […] Cell survival was determined by MTS cytotoxicity assay. […] Caspase 3/7 activity was expressed as RLU per μg/μl protein. […] Caspase 3/7 activity was expressed as RLU per μg/μl protein. […] Cells were treated and caspase 3/7 activity was measured as described in FIG. 8G and FIG. 8H.
Furthermore, the effects of DB4 on olaparib-induced apoptosis at 24 hr were evaluated. […]
The assay was performed as described previously (Lin Z P et al., 2018, PLOS One, 13:e0207399). […] Total protein concentration of cell lysates was determined as described above. Caspase 3/7 activity was expressed as luminescence units (RLU) per μg/μL protein for each sample.

DSB end resection = experiment: Western blot of DSB end resection with etoposide in PEO4 cells; format: cell-based; conditions: for Chk1 phosphorylation with/without etoposide: 5 μM etoposide 4 hr; for RPA32 phosphorylation, drug alone: 30 μM DB4, 1 μM triapine or 5 μM etoposide; for etoposide-induced RPA32 phosphorylation: pre-treated 1 hr, then 5 μM etoposide 4 hr
Protocol: PEO1 cells were treated with 30 μM DB4 or 1 μM triapine for indicated times, pulsed with EdU for 1 hr and subsequently assayed for DNA synthesis inhibition as described in FIG. 2B. The bivariate plots of Alexa Fluor 488 and PE-Cy5 were gated to determine % S phase cells. […] PEO4 cells were treated with 30 μM DB4 or 1 μM triapine for indicated times, pulsed with EdU for 1 hr and subsequently assayed for DNA synthesis inhibition as described in FIG. 2B. The bivariate plots of Alexa Fluor 488 and PE-Cy5 were gated to determine % S phase cells. […] The bivariate plots of Alexa Fluor 488 and PE-Cy5 shown in FIG. 6A and FIG. 6B were gated to determine % cells in G1, S, and G2/M phases. […] PEO4 cells were treated with 30 μM DB4 or 1 μM triapine for various time periods and subjected to western blot analysis for the levels of cyclin A2, p-CDK1/2, p-H1, p-Chk1, and HSC70. The HSC70 protein level was used as a loading control. Cropped gel images of protein bands are presented. Cyclin A2, p-CDK1/2, and p-H1 bands were from re-probing the same blot. p-Chk1 and HSC70 bands were from re-probing the same duplicated blot. […] The CDK2 activity is expressed by the percentage of the p-HI levels relative to that of the 0 hr control is shown. […] Protein was analyzed by western blotting for p-Chk1, p-ATR, p-RPA32, γH2AX, and HSC70. Cropped gel images of protein bands are presented. All protein bands were from re-probing the same blot. DSB end resection is assessed by the level of p-RPA32.
To investigate the effects of DB4 on DSB end resection, the level of RPA32 phosphorylation, indicative of CDK2-dependent DSB end resection, was determined.
The methodology was described previously (Lin Z P et al., 2014, Molecular Cancer Res, 12:381-393; Ratner E S et al., 2016, Br J Cancer, 114:777-786). The anti-HSC70 antibody was purchased from Santa Cruz (Santa Cruz, CA). Anti-cyclin A2, anti-phospho-ATR (Thr-1981), anti-phospho-Chk1 (Ser-345), anti-phospho-CDK1/2 (Tyr-15), and anti-Y-H2AX (Ser-139) antibodies were from Cell Signaling (Danvers, MA). Anti-phospho-RPA32 (S4/S8) and anti-BRCA2 antibodies were from Bethyl Laboratories (Montgomery, TX). Anti-phospho-histone H1 antibody was from Millipore-Sigma (Burlington, MA). To avoid the cross-reaction of secondary antibodies with previously probed primary antibodies, blots were stripped and re-probed with next primary antibodies raised in a different species in an alternate fashion. All images were acquired and processed using the G: BOX gel documentation system and the GeneSnap software (Syngene, Frederick, MD). Brightness and contrast of images were applied equally across the entire gel/blot image and to controls. Images of protein bands were cropped and only brightness-adjusted using the PowerPoint software (Microsoft, Redmond, WA). Quantification of the protein band intensity was performed using the ImageJ software (NIH, Bethesda, MD).

Row | SMILES | caspase 3/7 activity, olaparib alone (PEO1 cells) | ATR phosphorylation (DSB end resection) | Chk1 phosphorylation with/without etoposide (DSB end resection) | RPA32 phosphorylation, drug alone (DSB end resection) | etoposide-induced RPA32 phosphorylation (DSB end resection) | effect on olaparib-induced caspase 3/7 activity (PEO1 cells)
1 | O=C(c1cc(Cc2n[nH]c(=O)c3ccccc23)ccc1F)N1CCN(C(=O)C2CC2)CC1 [olaparib, reference compound] | pronounced increase in caspase 3/7 activity | – | – | – | – | –
2 | C=CCn1c(SCc2cccc(Cl)c2)nnc1C1CCN(Cc2nc3ccccc3s2)CC1 [DB4, 2-[(4-{4-allyl-5-[(3-chlorobenzyl)thio]-4H-1,2,4-triazol-3-yl}-1-piperidinyl)methyl]-1,3-benzothiazole] | – | weakly induce ATR phosphorylation | only synergized with etoposide to induce Chk1 phosphorylation | no effect on basal RPA32 phosphorylation | augmented etoposide-induced RPA32 phosphorylation | failed to enhance
3 | NC(=S)NN=Cc1ncccc1N [triapine, 3-aminopyridine-2-carboxaldehyde-thiosemicarbazone, reference compound] | – | induced ATR and Chk1 phosphorylation independently of etoposide treatment | induced ATR and Chk1 phosphorylation independently of etoposide treatment | induced a minor RPA32 phosphorylation | blocked phosphorylation of RPA32, induced by etoposide | –

Source: patent US20240239786A1, “COMPOSITIONS AND METHODS FOR THE TREATMENT AND PREVENTION OF CANCER” (Yale University, priority 2021, published 2024)
